Measurements from the kinase profiling compilation of Christmann-Franck et al. (2016).

Columns and labels:
Experiment in all cases: Caliper, Mobility shift assay off-chip
AXL (human) = AXL (human) (UniProt P30530)
CAMK1 (human) = CAMK1 (human) (UniProt Q14012)
CAMK2B (human) = CAMK2B (human) (UniProt Q13554)
CAMK4 (human) = CAMK4 (human) (UniProt Q16566)
CDC42BPB (human) = CDC42BPB (human) (UniProt Q9Y5S2)
CDK2 CCNE1 (human) = CDK2 CCNE1 (human) (UniProt P24864+P24941)
CDK5 CDK5R1 p35 (human) = CDK5 CDK5R1 p35 (human) (UniProt Q00535+Q15078)
CDK6 CCND3 (human) = CDK6 CCND3 (human) (UniProt Q00534+P30281)
[1] = system: CHEK2 (human), O96017 [R145W]
DYRK2 (human) = DYRK2 (human) (UniProt Q92630)
[2] = system: EGFR (human), P00533 [L858R]
[3] = system: EGFR (human), P00533 [L861Q]
EPHA7 (human) = EPHA7 (human) (UniProt Q15375)
EPHB1 (human) = EPHB1 (human) (UniProt P54762)
FER (human) = FER (human) (UniProt P16591)
FGR (human) = FGR (human) (UniProt P09769)
[4] = system: FLT3 (human), P36888 [D835Y]
FYN (human) = FYN (human) (UniProt P06241)
GRK6 (human) = GRK6 (human) (UniProt P43250)
GSG2 (human) = GSG2 (human) (UniProt Q8TF76)
HIPK2 (human) = HIPK2 (human) (UniProt Q9H2X6)
INSRR (human) = INSRR (human) (UniProt P14616)
IRAK4 (human) = IRAK4 (human) (UniProt Q9NWZ3)
JAK2 JH1 JH2 (human) = JAK2 JH1 JH2 (human) (UniProt O60674)
MAP2K7 (human) = MAP2K7 (human) (UniProt O14733)
MAP3K9 (human) = MAP3K9 (human) (UniProt P80192)
MARK1 (human) = MARK1 (human) (UniProt Q9P0L2)
MELK (human) = MELK (human) (UniProt Q14680)
NTRK1 (human) = NTRK1 (human) (UniProt P04629)
NTRK2 (human) = NTRK2 (human) (UniProt Q16620)
NUAK1 (human) = NUAK1 (human) (UniProt O60285)
PDGFRB (human) = PDGFRB (human) (UniProt P09619)
PRKCB1 (human) = PRKCB1 (human) (UniProt P05771)
PRKCZ (human) = PRKCZ (human) (UniProt Q05513)
PRKD1 (human) = PRKD1 (human) (UniProt Q15139)
PTK2 (human) = PTK2 (human) (UniProt Q05397)
ROS1 (human) = ROS1 (human) (UniProt P08922)
RPS6KA3 KD1 KD2 (human) = RPS6KA3 KD1 KD2 (human) (UniProt P51812)
RPS6KA4 KD1 KD2 (human) = RPS6KA4 KD1 KD2 (human) (UniProt O75676)
TSSK1B (human) = TSSK1B (human) (UniProt Q9BXA7)
Sequence of TSSK1B (human) (Q9BXA7 whole entry, looked up): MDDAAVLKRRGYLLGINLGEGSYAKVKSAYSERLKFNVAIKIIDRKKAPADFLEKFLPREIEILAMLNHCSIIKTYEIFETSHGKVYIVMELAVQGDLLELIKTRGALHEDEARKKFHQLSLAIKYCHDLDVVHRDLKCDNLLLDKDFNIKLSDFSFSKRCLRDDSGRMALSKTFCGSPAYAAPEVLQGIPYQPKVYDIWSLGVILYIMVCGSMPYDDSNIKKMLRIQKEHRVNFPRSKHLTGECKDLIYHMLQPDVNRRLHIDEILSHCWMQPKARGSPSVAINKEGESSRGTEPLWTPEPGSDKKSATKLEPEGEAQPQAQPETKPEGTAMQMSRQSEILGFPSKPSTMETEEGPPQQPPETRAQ

Sequence of CDC42BPB (human) (Q9Y5S2 whole entry, looked up): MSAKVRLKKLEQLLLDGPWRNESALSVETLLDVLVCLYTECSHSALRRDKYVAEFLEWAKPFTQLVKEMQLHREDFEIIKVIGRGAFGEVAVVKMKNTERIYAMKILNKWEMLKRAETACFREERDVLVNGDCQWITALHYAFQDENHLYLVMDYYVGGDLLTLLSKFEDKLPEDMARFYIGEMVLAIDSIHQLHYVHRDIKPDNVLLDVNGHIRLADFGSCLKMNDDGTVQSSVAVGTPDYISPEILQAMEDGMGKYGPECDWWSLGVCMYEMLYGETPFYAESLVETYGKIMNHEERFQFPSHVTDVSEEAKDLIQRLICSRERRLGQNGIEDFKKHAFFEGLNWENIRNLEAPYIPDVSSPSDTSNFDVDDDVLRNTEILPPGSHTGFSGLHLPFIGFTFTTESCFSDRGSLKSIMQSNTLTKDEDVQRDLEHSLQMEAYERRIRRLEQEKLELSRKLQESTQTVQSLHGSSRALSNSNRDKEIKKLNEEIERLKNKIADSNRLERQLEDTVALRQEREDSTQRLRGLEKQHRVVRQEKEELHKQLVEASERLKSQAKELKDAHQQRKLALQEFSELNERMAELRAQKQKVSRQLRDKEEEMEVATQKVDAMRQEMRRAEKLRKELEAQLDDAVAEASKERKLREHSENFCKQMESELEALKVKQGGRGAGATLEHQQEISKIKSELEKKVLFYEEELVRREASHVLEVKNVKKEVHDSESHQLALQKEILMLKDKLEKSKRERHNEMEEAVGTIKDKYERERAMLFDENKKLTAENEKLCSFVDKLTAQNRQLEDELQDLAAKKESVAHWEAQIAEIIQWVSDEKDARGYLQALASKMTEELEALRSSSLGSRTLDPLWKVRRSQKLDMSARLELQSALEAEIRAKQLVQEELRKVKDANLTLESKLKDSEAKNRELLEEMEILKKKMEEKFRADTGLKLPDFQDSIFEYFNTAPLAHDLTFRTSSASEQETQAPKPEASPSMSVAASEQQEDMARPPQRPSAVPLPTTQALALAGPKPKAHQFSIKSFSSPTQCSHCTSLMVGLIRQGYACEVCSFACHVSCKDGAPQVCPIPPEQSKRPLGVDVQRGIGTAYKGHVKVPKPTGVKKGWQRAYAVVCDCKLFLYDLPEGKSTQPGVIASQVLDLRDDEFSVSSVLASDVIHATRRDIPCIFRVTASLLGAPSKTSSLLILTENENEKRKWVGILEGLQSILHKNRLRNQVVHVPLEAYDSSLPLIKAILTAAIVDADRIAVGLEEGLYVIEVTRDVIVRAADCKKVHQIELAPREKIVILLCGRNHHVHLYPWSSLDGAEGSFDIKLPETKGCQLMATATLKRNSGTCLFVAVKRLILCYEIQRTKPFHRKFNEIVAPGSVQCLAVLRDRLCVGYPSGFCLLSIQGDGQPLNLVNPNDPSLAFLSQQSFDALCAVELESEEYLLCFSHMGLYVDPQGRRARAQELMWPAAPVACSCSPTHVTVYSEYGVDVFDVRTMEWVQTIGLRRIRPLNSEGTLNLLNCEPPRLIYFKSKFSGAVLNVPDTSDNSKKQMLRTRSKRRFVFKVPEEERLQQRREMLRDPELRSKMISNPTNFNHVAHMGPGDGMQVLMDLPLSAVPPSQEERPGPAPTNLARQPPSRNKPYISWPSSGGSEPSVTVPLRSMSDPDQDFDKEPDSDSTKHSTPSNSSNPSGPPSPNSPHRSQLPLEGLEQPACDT
Sequence of PTK2 (human) (Q05397 whole entry, looked up): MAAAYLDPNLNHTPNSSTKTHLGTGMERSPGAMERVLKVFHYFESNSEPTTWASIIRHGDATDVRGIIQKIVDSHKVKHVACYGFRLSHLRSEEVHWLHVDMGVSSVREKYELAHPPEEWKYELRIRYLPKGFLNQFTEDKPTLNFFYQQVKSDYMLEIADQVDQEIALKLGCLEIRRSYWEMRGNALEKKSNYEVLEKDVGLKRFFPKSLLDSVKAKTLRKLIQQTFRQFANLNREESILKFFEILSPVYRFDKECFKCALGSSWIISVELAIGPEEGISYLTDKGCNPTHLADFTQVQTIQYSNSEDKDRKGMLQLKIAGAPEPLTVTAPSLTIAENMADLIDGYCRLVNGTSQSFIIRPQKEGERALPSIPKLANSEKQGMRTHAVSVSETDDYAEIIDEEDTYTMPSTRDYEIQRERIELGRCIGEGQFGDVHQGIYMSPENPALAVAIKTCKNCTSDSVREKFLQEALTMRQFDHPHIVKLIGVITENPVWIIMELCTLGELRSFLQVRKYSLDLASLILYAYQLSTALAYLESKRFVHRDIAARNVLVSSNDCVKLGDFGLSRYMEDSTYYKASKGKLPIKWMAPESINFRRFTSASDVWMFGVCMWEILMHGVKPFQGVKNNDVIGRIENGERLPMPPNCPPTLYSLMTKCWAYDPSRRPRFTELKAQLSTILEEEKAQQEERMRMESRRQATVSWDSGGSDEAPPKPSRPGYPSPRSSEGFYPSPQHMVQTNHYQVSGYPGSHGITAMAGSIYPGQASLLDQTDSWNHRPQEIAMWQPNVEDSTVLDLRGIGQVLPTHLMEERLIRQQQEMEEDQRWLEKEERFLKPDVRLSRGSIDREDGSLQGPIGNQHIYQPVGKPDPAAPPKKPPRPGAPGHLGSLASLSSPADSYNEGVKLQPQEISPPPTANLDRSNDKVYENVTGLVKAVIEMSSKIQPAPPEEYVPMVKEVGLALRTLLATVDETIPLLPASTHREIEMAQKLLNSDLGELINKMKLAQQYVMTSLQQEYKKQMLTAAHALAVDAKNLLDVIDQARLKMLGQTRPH
Sequence of PDGFRB (human) (P09619 whole entry, looked up): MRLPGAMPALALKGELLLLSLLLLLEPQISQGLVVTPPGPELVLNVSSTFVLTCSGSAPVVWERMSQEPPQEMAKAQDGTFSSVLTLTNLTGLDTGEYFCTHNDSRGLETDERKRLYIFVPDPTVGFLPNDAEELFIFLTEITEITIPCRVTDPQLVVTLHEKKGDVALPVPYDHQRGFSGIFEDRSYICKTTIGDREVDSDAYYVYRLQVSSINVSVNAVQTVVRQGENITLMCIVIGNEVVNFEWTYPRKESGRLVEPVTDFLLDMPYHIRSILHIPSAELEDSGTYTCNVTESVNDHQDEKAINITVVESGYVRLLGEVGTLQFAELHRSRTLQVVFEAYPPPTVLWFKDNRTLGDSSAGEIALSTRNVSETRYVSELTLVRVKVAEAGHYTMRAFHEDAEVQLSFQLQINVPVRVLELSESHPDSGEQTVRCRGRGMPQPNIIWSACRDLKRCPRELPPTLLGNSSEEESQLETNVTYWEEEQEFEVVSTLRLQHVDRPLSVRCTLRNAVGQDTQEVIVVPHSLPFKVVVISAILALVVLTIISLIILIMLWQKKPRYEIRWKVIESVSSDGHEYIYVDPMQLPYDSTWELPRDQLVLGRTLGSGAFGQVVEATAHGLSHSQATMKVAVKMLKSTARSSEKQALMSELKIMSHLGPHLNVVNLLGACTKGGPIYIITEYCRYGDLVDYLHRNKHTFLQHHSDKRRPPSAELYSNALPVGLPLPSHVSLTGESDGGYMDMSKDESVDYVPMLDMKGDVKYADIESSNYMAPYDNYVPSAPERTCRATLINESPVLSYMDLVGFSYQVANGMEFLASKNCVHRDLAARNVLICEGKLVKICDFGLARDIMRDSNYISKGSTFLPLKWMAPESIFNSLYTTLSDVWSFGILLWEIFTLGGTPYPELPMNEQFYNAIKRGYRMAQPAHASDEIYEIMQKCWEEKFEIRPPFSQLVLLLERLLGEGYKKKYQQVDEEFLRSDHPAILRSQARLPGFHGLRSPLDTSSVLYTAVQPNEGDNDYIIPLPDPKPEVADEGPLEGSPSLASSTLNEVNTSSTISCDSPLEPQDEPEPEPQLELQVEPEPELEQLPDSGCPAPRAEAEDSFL
Sequence of NTRK1 (human) (P04629 whole entry, looked up): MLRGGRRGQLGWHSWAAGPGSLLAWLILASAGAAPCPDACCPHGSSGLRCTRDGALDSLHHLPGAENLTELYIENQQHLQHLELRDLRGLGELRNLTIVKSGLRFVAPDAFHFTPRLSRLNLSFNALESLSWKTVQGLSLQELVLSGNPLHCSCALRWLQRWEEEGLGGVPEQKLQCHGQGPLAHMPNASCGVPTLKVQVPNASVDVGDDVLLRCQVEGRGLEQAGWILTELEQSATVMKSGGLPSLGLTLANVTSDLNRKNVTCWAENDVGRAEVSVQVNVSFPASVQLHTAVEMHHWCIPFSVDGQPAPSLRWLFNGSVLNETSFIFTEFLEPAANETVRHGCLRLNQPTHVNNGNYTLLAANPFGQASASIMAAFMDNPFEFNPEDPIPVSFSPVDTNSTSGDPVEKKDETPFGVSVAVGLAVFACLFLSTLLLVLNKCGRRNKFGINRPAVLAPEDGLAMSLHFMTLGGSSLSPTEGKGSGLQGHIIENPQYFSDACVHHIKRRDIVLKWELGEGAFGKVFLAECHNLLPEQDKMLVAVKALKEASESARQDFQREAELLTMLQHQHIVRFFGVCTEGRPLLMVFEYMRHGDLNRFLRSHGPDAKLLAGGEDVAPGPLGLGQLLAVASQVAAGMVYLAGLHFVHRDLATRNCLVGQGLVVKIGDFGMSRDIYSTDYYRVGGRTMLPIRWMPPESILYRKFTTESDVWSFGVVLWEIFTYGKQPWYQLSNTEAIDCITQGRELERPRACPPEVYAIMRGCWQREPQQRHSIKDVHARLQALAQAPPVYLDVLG

`COc1ccc(C#Cc2ccc3ncc4ncn(-c5ccc(CCN)cc5)c4c3c2)cc1` showed a residual activity (AXL (human); compound 10.0 µM) of 3%, a residual activity (CAMK1 (human); compound 10.0 µM) of 9% and a residual activity (CAMK2B (human); compound 10.0 µM) of 6%. For the same molecule, the residual activity (CAMK4 (human); compound 10.0 µM) was 69%, the residual activity (CDC42BPB (human); compound 10.0 µM) was 111% and the residual activity (CDK2 CCNE1 (human); compound 10.0 µM) was 99%. The residual activity (CDK5 CDK5R1 p35 (human); compound 10.0 µM) was 98%, the residual activity (CDK6 CCND3 (human); compound 10.0 µM) was 103% and the residual activity ([1]; compound 10.0 µM) was 1%. For the same molecule, the residual activity (DYRK2 (human); compound 10.0 µM) was 86%, the residual activity ([2]; compound 10.0 µM) was 50% and the residual activity ([3]; compound 10.0 µM) was 72%. It also gave a residual activity (EPHA7 (human); compound 10.0 µM) of 118%, a residual activity (EPHB1 (human); compound 10.0 µM) of 110% and a residual activity (FER (human); compound 10.0 µM) of 14%. The residual activity (FGR (human); compound 10.0 µM) was 36%, the residual activity ([4]; compound 10.0 µM) was 10% and the residual activity (FYN (human); compound 10.0 µM) was 114%. For the same molecule, the residual activity (GRK6 (human); compound 10.0 µM) was 108%, the residual activity (GSG2 (human); compound 10.0 µM) was 0% and the residual activity (HIPK2 (human); compound 10.0 µM) was 63%. It also gave a residual activity (INSRR (human); compound 10.0 µM) of 71%, a residual activity (IRAK4 (human); compound 10.0 µM) of 73% and a residual activity (JAK2 JH1 JH2 (human); compound 10.0 µM) of 106%. The residual activity (MAP2K7 (human); compound 10.0 µM) was 30%, the residual activity (MAP3K9 (human); compound 10.0 µM) was 8% and the residual activity (MARK1 (human); compound 10.0 µM) was 86%. The residual activity (MELK (human); compound 10.0 µM) was 13%, the residual activity (NTRK1 (human); compound 10.0 µM) was 4% and the residual activity (NTRK2 (human); compound 10.0 µM) was 23%. The residual activity (NUAK1 (human); compound 10.0 µM) was 66%, the residual activity (PDGFRB (human); compound 10.0 µM) was 77% and the residual activity (PRKCB1 (human); compound 10.0 µM) was 99%. It also gave a residual activity (PRKCZ (human); compound 10.0 µM) of 85%, a residual activity (PRKD1 (human); compound 10.0 µM) of 32% and a residual activity (PTK2 (human); compound 10.0 µM) of 76%. The residual activity (ROS1 (human); compound 10.0 µM) was 54%, the residual activity (RPS6KA3 KD1 KD2 (human); compound 10.0 µM) was 24% and the residual activity (RPS6KA4 KD1 KD2 (human); compound 10.0 µM) was 8%. It also gave a residual activity (TSSK1B (human); compound 10.0 µM) of 99%.

With `C[C@@H](Nc1nc2c(C#CC3CC3)c[nH]c(=O)c2c2cc(-c3cn[nH]c3)ccc12)C(C)(C)C` the residual activity (AXL (human); compound 1.0 µM) was 18%, the residual activity (CAMK1 (human); compound 1.0 µM) was 63% and the residual activity (CAMK2B (human); compound 1.0 µM) was 78%. It also gave a residual activity (CAMK4 (human); compound 1.0 µM) of 22%, a residual activity (CDC42BPB (human); compound 1.0 µM) of 99% and a residual activity (CDK2 CCNE1 (human); compound 1.0 µM) of 116%. For the same molecule, the residual activity (CDK5 CDK5R1 p35 (human); compound 1.0 µM) was 122%, the residual activity (CDK6 CCND3 (human); compound 1.0 µM) was 102% and the residual activity ([1]; compound 1.0 µM) was 12%. It also gave a residual activity (DYRK2 (human); compound 1.0 µM) of 102%, a residual activity ([2]; compound 1.0 µM) of 76% and a residual activity ([3]; compound 1.0 µM) of 68%. It also gave a residual activity (EPHA7 (human); compound 1.0 µM) of 102%, a residual activity (EPHB1 (human); compound 1.0 µM) of 104% and a residual activity (FER (human); compound 1.0 µM) of 6%. For the same molecule, the residual activity (FGR (human); compound 1.0 µM) was 57%, the residual activity ([4]; compound 1.0 µM) was 9% and the residual activity (FYN (human); compound 1.0 µM) was 79%. It also gave a residual activity (GRK6 (human); compound 1.0 µM) of 101%, a residual activity (GSG2 (human); compound 1.0 µM) of 158% and a residual activity (HIPK2 (human); compound 1.0 µM) of 104%. The residual activity (INSRR (human); compound 1.0 µM) was 104%, the residual activity (IRAK4 (human); compound 1.0 µM) was 122% and the residual activity (JAK2 JH1 JH2 (human); compound 1.0 µM) was 106%. For the same molecule, the residual activity (MAP2K7 (human); compound 1.0 µM) was 107%, the residual activity (MAP3K9 (human); compound 1.0 µM) was 1% and the residual activity (MARK1 (human); compound 1.0 µM) was 61%. It also gave a residual activity (MELK (human); compound 1.0 µM) of 67%, a residual activity (NTRK1 (human); compound 1.0 µM) of 10% and a residual activity (NTRK2 (human); compound 1.0 µM) of 59%. The residual activity (NUAK1 (human); compound 1.0 µM) was 11%, the residual activity (PDGFRB (human); compound 1.0 µM) was 102% and the residual activity (PRKCB1 (human); compound 1.0 µM) was 94%. The residual activity (PRKCZ (human); compound 1.0 µM) was 108%, the residual activity (PRKD1 (human); compound 1.0 µM) was 86% and the residual activity (PTK2 (human); compound 1.0 µM) was 75%. The residual activity (ROS1 (human); compound 1.0 µM) was 98%, the residual activity (RPS6KA3 KD1 KD2 (human); compound 1.0 µM) was 5% and the residual activity (RPS6KA4 KD1 KD2 (human); compound 1.0 µM) was 61%. It also gave a residual activity (TSSK1B (human); compound 1.0 µM) of 75%.
